Patent US12582647B2, “Systems and methods for treating an opioid-induced adverse pharmacodynamic response” (Purdue Pharma L.P., priority 2012, dated 2026)

Assays:
[1] = test system: rat gastric emptying; assay: Stomach weight after charcoal meal (gastric emptying); type: in vivo, male Sprague-Dawley rats; settings: morphine sulfate 1-10 mg/kg SC 0.5 h before charcoal meal, vs vehicle; FIG. 1B
Description: Morphine sulfate (1-10 mg/kg) or 0.9% normal saline (vehicle) was administered SC to the test subjects. 0.5 hour later, a charcoal meal (1 ml/100 grams) was administered PO to the test subjects. One hour after the charcoal meal, the test subjects were euthanized by CO2 and the stomachs were removed and weighed. Data were analyzed using a one-way ANOVA followed by the Dunnett's Multiple Comparisons test where *P<0.05, **P<0.01 and ***P<0.001. […] This effect was dose dependent with a greater magnitude of effect observed with increasing dose.

[2] = test system: acute thermal pain in the rat; assay: Rat hot plate assay (response latency, % MPE)
Description: Morphine sulphate (1-10 mg/kg) was dissolved in 0.9% normal saline solution (NSS)(vehicle) and administered SC 1 hour prior to testing against vehicle. Data were analyzed by a two-way ANOVA using a Bonferroni Multiple Comparison Test,***P<0.001.
Morphine sulphate (1-10 mg/kg) was dissolved in 0.9% normal saline solution (NSS)(vehicle) and administered SC 1 hour prior to testing against vehicle. % MPE=Percent Maximum Possible Effect. % MPE=(test latency-baseline)/(cutoff-baseline). Data was analyzed using a Bonferroni Multiple Comparison Test,***P<0.001.
Morphine sulphate (10 mg/kg), the positive control, was dissolved in 0.9% NSS (vehicle). The formulations were administered SC 1 hour prior to testing against vehicle. Data were analyzed by a two-way ANOVA using a Bonferroni multiple comparisons test, where *P<0.05 and ***P <0.001. Data are represented as the means+S.E.M.
Morphine sulphate (10 mg/kg) was dissolved in 0.9% NSS (vehicle). The formulations were administered SC 1 hour prior to testing against vehicle. % MPE=Percent Maximum Possible Effect. % MPE=(test latency-baseline)/(cutoff (30 s)-baseline). Data were analyzed by a two-way ANOVA using Bonferroni Multiple Comparisons test for post-hoc analysis, where *P<0.05 and ***P<0.001. Data are represented as the means+SEM.
The positive control, morphine sulfate in 0.9% NS, was administered SC 1 hour prior to testing. Rats were assessed one day prior (BL) and then 1, 3 and 5 hours post-dosing. Hot Plate was set to 52° C. and cutoff was 30 seconds. Data were analyzed by a two-way ANOVA using a Bonferroni Multiple Comparisons Test, where *P<0.05, ***P<0.001 and ****P<0.0001 versus vehicle. Data are represented as the means+S.E.M from two combined studies.
Oxycodone hydrochloride (0.3-5 mg/kg) was dissolved in 0.9% normal saline solution (NSS)(vehicle) and administered SC 1 hour prior to testing against vehicle. Hot plate was set to 52° C. and cutoff was 30 seconds. Data were analyzed by a two-way ANOVA using a Bonferroni multiple comparisons test, where ****P<0.0001. Data are represented as the means+S.E.M.
Compound was administered SC 1 hour prior to testing. Oxycodone hydrochloride (0.3-5 mg/kg) was dissolved in 0.9% normal saline solution (NSS)(vehicle) and administered SC 1 hour prior to testing against vehicle. Hot plate was set to 52° C. and cutoff was 30 seconds. % MPE=. Percent Maximum Possible Effect. % MPE=(test latency-baseline)/(cutoff (30 s)-baseline). Data were analyzed by a two-way ANOVA using Bonferroni Multiple Comparisons test for post-hoc analysis, ****P<0.000. Data are represented as the means+SEM.
Oxycodone HCl was administered SC 1 hour prior to testing. Thermal latency was assessed the day prior (BL) and then 1, 3 and 5 hours post-oxycodone dosing. The hotplate was set to 52° C. and the cutoff was 30 seconds. Oxycodone was dissolved in 0.9% NS (vehicle). […] Data were analyzed by a two-way ANOVA using the Bonferroni Multiple Comparisons test for post-hoc analysis where, ***P<0.001. Data are represented as the means+SEM.
Oxycodone HCl was administered PO 1 hour prior to testing, while morphine sulfate, the positive control, was administered SC 1 hour prior to testing. Behavior was assessed the day prior (BL) and then 1, 3, 5 and 24 hours post-compound administration. The hot plate was set to 52° C. and the cutoff was 30 seconds. Oxycodone was dissolved in water (vehicle), while morphine sulfate was dissolved in 0.9% NS. Data were analyzed by a two-way ANOVA using a Bonferroni Multiple Comparisons Test, where ****P<0.0001.
Rats were assessed for thermal latency the day prior to dosing, then 1.5, 3 and 5 hours post-morphine administration. Data were analyzed by a two-way ANOVA using the Bonferroni Multiple Comparisons Test, where ****P<0.0001 compared to vehicle+vehicle.

[3] = test system: acute thermal pain in the rat; assay: Rat tail flick assay (response latency, % MPE)
Description: Morphine sulphate (1-10 mg/kg) was dissolved in 0.9% normal saline solution (NSS)(vehicle) and administered SC 1 hour prior to testing against vehicle. Data were analyzed by a two-way ANOVA using a Bonferroni post-hoc test, *P<0.05, ***P<0.001.
Morphine sulphate (1-10 mg/kg) was dissolved in 0.9% normal saline solution (NSS)(vehicle) and administered SC 1 hour prior to testing against vehicle. % MPE=Percent of Maximum Possible Effect. % MPE=(test latency-baseline)/(cutoff(20 s)-baseline)*100. Data were analyzed by a two-way ANOVA using a Bonferroni post-hoc test, *P<0.05, **P<0.01, ***P<0.001.
Morphine sulphate (10 mg/kg) was dissolved in 0.9% NSS (vehicle). The formulations were administered SC 1 hour prior to testing against vehicle. Data were analyzed by a two-way ANOVA using a Bonferroni multiple comparisons test, *P<0.05, ***P<0.001.
Morphine sulphate (10 mg/kg) was dissolved in 0.9% NSS (vehicle). The formulations were administered SC 1 hour prior to testing against vehicle. % MPE=Percent Maximum Possible Effect. % MPE=(test latency-baseline)/(cutoff(20 s)-baseline)*100. Data were analyzed by a two-way ANOVA using a Bonferroni multiple comparisons test, ***P<0.001.
The positive control, morphine sulfate in 0.9% NS was administered SC 1 hour prior to testing. Rats were assessed the day prior (BL) and then 1, 3 and 5 hours post-dosing. Tail Flick was set to 40 intensity and cutoff 20 seconds. Data were analyzed by a two-way ANOVA using a Bonferroni Multiple Comparisons Test, where *P<0.05,***P<0.001 and ****P<0.0001. Data are represented as the means+S.E.M of two combined studies.
Oxycodone hydrochloride (0.3-5 mg/kg) was dissolved in 0.9% normal saline solution (NSS)(vehicle) and administered SC 1 hour prior to testing against vehicle. Data were analyzed by a two-way ANOVA using a Bonferroni multiple comparisons test, ****P<0.001.
Oxycodone hydrochloride (0.3-5 mg/kg) was dissolved in 0.9% normal saline solution (NSS)(vehicle) and administered SC 1 hour prior to testing against vehicle. % MPE=Percent Maximum Possible Effect. % MPE=(test latency-baseline)/(cutoff(20 s)-baseline)*100. Data were analyzed by a two-way ANOVA using a Bonferroni multiple comparisons test, ****P<0.001.
Oxycodone HCl and vehicle were administered SC 1 hour prior to testing. Rats were assessed one day prior (BL) and then 1, 3 and 5 hours post-oxycodone administration. The tail flick was set to an intensity of 40 and the cutoff was 20 seconds. Oxycodone was dissolved in 0.9% (vehicle). […] Data were analyzed by a two-way ANOVA followed by the Bonferroni Multiple Comparisons Test where, *P<0.05 and ****P<0.001.
Oxycodone HCl was administered PO 1 hour prior to testing, while morphine sulfate, the positive control, was administered SC 1 Hour prior to testing. Behavior was assessed the day prior (BL) to dosing, and then 1, 3, 5 and 24 hours post-compound administration. The tail flick was set to an intensity of 40 and 20 seconds was used as the cutoff. Oxycodone was dissolved in water (vehicle), while morphine was dissolved in 0.9% NS. Data were analyzed by a two-way ANOVA using a Bonferroni Multiple Comparisons Test, where *P<0.05, **P<0.01, ***P<0.001 and ****P<0.0001.
Rats were assessed for tail flick latency the day prior to dosing, then 1.5, 3 and 5 hours post-morphine administration. Data were analyzed by a two-way ANOVA using the Bonferroni Multiple Comparisons Test, where ****P<0.0001 compared to vehicle+vehicle. Data are represented as the means+S.E.M.
Rats were assessed for thermal latency 1.5, 3 and 5 hours post-morphine administration. % MPE=Percent Maximum Possible Effect. % MPE=(test latency-baseline)/(cutoff(20 s)-baseline)*100. Data were analyzed by a two-way ANOVA using a Bonferroni multiple comparisons test for post-hoc analysis where *P<0.05 and ****P<0.001. Data are represented as the means+SEM.
Rats were tested 1 hour after oxycodone injection.

[4] = test system: rat GI transit; assay: Charcoal meal GI transit in the rat, single agent; settings: for GI transit: % of the small intestine travelled by a charcoal meal: vs vehicle
Description: Rats were dosed with Oxycodone HCl/Oxy or vehicle (water) PO once daily for 5 days (chronic). Additional groups were dosed only once on day 5 (acute). […] One hour after charcoal, all rats were euthanized by CO2 and the GI tract was removed from the stomach to the cecum. The length of the small intestine and the distance (cm) to the leading edge of charcoal was recorded. Data were analyzed using a one-way ANOVA with Bonferonni's Multiple Comparison Test where * P<0.05, ****P<0.0001 vs. vehicle (chronic), ###vs. oxycodone (acute). Data are represented as the means+S.E.M.

| SMILES | stomach weight (gastric emptying) [1] | hot plate latency to nocifensive response ([2]; morphine sulphate 1-10 mg/kg SC 1 h prior to testing, FIG. 2A) | hot plate % of the maximal possible effect (% MPE) ([2]; morphine sulphate 1-10 mg/kg SC 1 h prior to testing, FIG. 2B) | tail flick latency to nocifensive response ([3]; morphine sulphate 1-10 mg/kg SC 1 h prior to testing, FIG. 3A) | tail flick % of the maximal possible effect (% MPE) ([3]; morphine sulphate 1-10 mg/kg SC 1 h prior to testing, FIG. 3B) | GI transit: % of the small intestine travelled by a charcoal meal ([4]; morphine sulfate 1-10 mg/kg SC 0.5 h before charcoal meal, FIG. 1A) | rats found dead ([2]; oxycodone HCl 10 mg/kg SC, at the 3 hr time point) | hot plate MED (mitigates acute pain) ([2]; oxycodone HCl PO, FIG. 8D) [mg/kg] | hot plate MED (mitigates acute pain) ([2]; oxycodone HCl SC, FIG. 8C) [mg/kg] | hot plate latency to nocifensive response ([2]; oxycodone hydrochloride 0.3-5 mg/kg SC 1 h prior to testing, FIG. 8A) | hot plate % of the maximal possible effect (% MPE) ([2]; oxycodone hydrochloride 0.3-5 mg/kg SC 1 h prior to testing, FIG. 8B) | rats found dead ([3]; oxycodone HCl 10 mg/kg SC dosing group, at the 3 hr time point) | tail flick MED (mitigates acute pain) ([3]; oxycodone HCl PO, FIG. 9D) [mg/kg] | tail flick MED (mitigates acute pain) ([3]; oxycodone HCl SC, FIG. 9C) [mg/kg] | tail flick latency to nocifensive response ([3]; oxycodone hydrochloride 0.3-5 mg/kg SC 1 h prior to testing, FIG. 9A) | tail flick % of the maximal possible effect (% MPE) ([3]; oxycodone hydrochloride 0.3-5 mg/kg SC 1 h prior to testing, FIG. 9B) | tolerance to inhibition of GI transit ([4]; oxycodone HCl PO once daily for 5 days (chronic) vs single dose on day 5 (acute), FIG. 7D) | GI transit: % of the small intestine travelled by a charcoal meal ([4]; oxycodone hydrochloride 0.3-5 mg/kg SC 1 h before charcoal meal, FIG. 7A) |
| --- | --- | --- | --- | --- | --- | --- | --- | --- | --- | --- | --- | --- | --- | --- | --- | --- | --- | --- |
| CN1CC[C@]23c4c5ccc(O)c4O[C@H]2[C@@H](O)C=C[C@H]3[C@H]1C5.O=S(=O)(O)O [morphine, morphine sulphate] | increased stomach weight due to delayed gastric emptying | provides analgesia | provides analgesia | provides analgesia | provides analgesia | decreases gastrointestinal transit | – | – | – | – | – | – | – | – | – | – | – | – |
| COc1ccc2c3c1O[C@H]1C(=O)CC[C@@]4(O)[C@@H](C2)N(C)CC[C@]314.Cl [oxycodone, oxycodone hydrochloride] | – | – | – | – | – | – | 4 out of 10 | 10 | 3 | provides analgesia | provides analgesia | 4 out of 10 | 10 | 3 | provides analgesia | provides analgesia | produces some tolerances to its acute effect on the inhibition of GI transit | decreases gastrointestinal transit |
